Test results taken from ChEMBL document CHEMBL3046223, “Compounds against inflammation and oxidative insult as potential agents for neurodegenerative disorders” (Med Chem Res, 2012).

System: Mus musculus
Assay: Anti-inflammatory activity in Balb-C Mus musculus (mouse) assessed as inhibition of FCA-induced paw oedema at 0.15 mmol/kg, ip administered 5 min before FCA challenge measured after 3 hr relative to control
Type: functional
Details: not given
With `CCOC(=O)C(CS)NC(=O)C1CCCN1C(=O)Cc1c(C)n(C(=O)c2ccc(Cl)cc2)c2ccc(OC)cc12` (centres undefined) the inhibition in vivo at 150 µmol/kg was 25%. With `COc1ccc2c(c1)c(CC(=O)N1CCCC1C(=O)Oc1ccc(C)cc1OC)c(C)n2C(=O)c1ccc(Cl)cc1` (centres undefined) the inhibition in vivo at 150 µmol/kg was 49%. In the case of `COc1ccc2c(c1)c(CC(=O)O)c(C)n2C(=O)c1ccc(Cl)cc1` [INDOMETHACIN], the inhibition in vivo at 150 µmol/kg is reported as 68%.

System: Mus musculus
Assay: Anti-inflammatory activity in Balb-C Mus musculus (mouse) assessed as inhibition of FCA-induced paw oedema at 0.30 mmol/kg, ip administered 5 min before FCA challenge measured after 3 hr relative to control
Type: functional
Details: not given
For `COc1cc(C)ccc1OC(=O)C(C)c1ccc(CC(C)C)cc1` (centres undefined), the inhibition in vivo at 300 µmol/kg was 43%. `CCOC(=O)C(CS)NC(=O)C1CCCN1C(=O)Cc1c(C)n(C(=O)c2ccc(Cl)cc2)c2ccc(OC)cc12` (centres undefined) gave an inhibition in vivo at 300 µmol/kg of 44%. `CC(C)Cc1ccc(C(C)C(=O)OCCCc2cccnc2)cc1` (centres undefined) showed an inhibition in vivo at 300 µmol/kg of 59%. Work on `CC(C)Cc1ccc(C(C)C(=O)N2CCCC2C(=O)OCCO)cc1` (centres undefined) yielded an inhibition in vivo at 300 µmol/kg of 24%. `CC(C)Cc1ccc(C(C)C(=O)N2CCCC2C(=O)OCCCc2ccccc2)cc1` (centres undefined) showed an inhibition in vivo at 300 µmol/kg of 31%. `CC(C)Cc1ccc(C(C)C(=O)N2CCCC2C(=O)OCCO[N+](=O)[O-])cc1` (centres undefined) showed an inhibition in vivo at 300 µmol/kg of 62%. Work on `CC(C)Cc1ccc([C@H](C)C(=O)O)cc1` [DEXIBUPROFEN] yielded an inhibition in vivo at 300 µmol/kg of 53%. `COc1ccc2c(c1)c(CC(=O)N1CCCC1C(=O)Oc1ccc(C)cc1OC)c(C)n2C(=O)c1ccc(Cl)cc1` (centres undefined) gave an inhibition in vivo at 300 µmol/kg of 54%.

System: not listed separately
Assay: Ratio of drug level in brain to blood in Rattus norvegicus (rat) at 0.6 mmol/kg, ip after 2 hr by RP-HPLC analysis
Type: ADME, organism-based
Details: not given
For `COc1ccc2cc([C@H](C)C(=O)N3CC(O)CC3C(=O)NCCS)ccc2c1` (some centres undefined), the Kp at 2 h was 0.04.

System: not listed separately
Assay: Ratio of drug level in brain to blood in Rattus norvegicus (rat) at 0.6 mmol/kg, ip after 3 hr by RP-HPLC analysis
Type: ADME, organism-based
Details: not given
For `COc1ccc2cc([C@H](C)C(=O)N3CC(O)CC3C(=O)NCCS)ccc2c1` (some centres undefined), the Kp at 3 h was 0.004.

System: not listed separately
Assay: Drug uptake in Rattus norvegicus (rat) brain at 0.6 mmol/kg, ip after 120 min by RP-HPLC analysis
Type: ADME, organism-based
Details: read-out: Drug uptake
For `CC(C)Cc1ccc(C(C)C(=O)N2CCCC2C(=O)NCCS)cc1` (centres undefined), the concentration at 2 h was 35200 ng/g. `CCOC(=O)C(CS)NC(=O)C1CCCN1C(=O)C(C)c1ccc(CC(C)C)cc1` (centres undefined) showed a concentration at 2 h of 27800 ng/g. Compound `COc1ccc2cc([C@H](C)C(=O)N3CC(O)CC3C(=O)NCCS)ccc2c1` (some centres undefined) has a concentration at 2 h of 710 ng/g.

System: not listed separately
Assay: Drug uptake in Rattus norvegicus (rat) brain at 0.6 mmol/kg, ip after 60 min by RP-HPLC analysis
Type: ADME, organism-based
Details: read-out: Drug uptake
`CC(C)Cc1ccc(C(C)C(=O)N2CCCC2C(=O)NCCS)cc1` (centres undefined) showed a concentration at 1 h of 10200 ng/g. With `CCOC(=O)C(CS)NC(=O)C1CCCN1C(=O)C(C)c1ccc(CC(C)C)cc1` (centres undefined) the concentration at 1 h was 40800 ng/g. `COc1ccc2cc([C@H](C)C(=O)N3CC(O)CC3C(=O)NCCS)ccc2c1` (some centres undefined) gave a concentration at 1 h of 5700 ng/g.

System: not listed separately
Assay: Drug uptake in Rattus norvegicus (rat) brain at 0.6 mmol/kg, ip after 30 min by RP-HPLC analysis
Type: ADME, organism-based
Details: read-out: Drug uptake
With `CC(C)Cc1ccc(C(C)C(=O)N2CCCC2C(=O)NCCS)cc1` (centres undefined) the concentration at 0.5 h was 9780 ng/g. Compound `CCOC(=O)C(CS)NC(=O)C1CCCN1C(=O)C(C)c1ccc(CC(C)C)cc1` (centres undefined) has a concentration at 0.5 h of 1590 ng/g. Work on `COc1ccc2cc([C@H](C)C(=O)N3CC(O)CC3C(=O)NCCS)ccc2c1` (some centres undefined) yielded a concentration at 0.5 h of 26600 ng/g.

System: Rattus norvegicus
Assay: Gastrointestinal toxicity in Rattus norvegicus (rat) assessed as incidence of melena at 84 umol/kg, sc qd for 4 days
Type: organism-based
Details: in vivo, 96 h
For `COc1ccc2c(c1)c(CC(=O)N1CCCC1C(=O)Oc1ccc(C)cc1OC)c(C)n2C(=O)c1ccc(Cl)cc1` (centres undefined), the Activity was 0%. Compound `COc1ccc2c(c1)c(CC(=O)O)c(C)n2C(=O)c1ccc(Cl)cc1` [INDOMETHACIN] has an Activity of 100%.

System: Rattus norvegicus
Assay: Toxicity in rat assessed as body weight change per 100 gram body weight at 84 umol/kg, sc qd for 4 days
Type: organism-based
Details: in vivo, 96 h
Work on `COc1ccc2c(c1)c(CC(=O)N1CCCC1C(=O)Oc1ccc(C)cc1OC)c(C)n2C(=O)c1ccc(Cl)cc1` (centres undefined) yielded an Activity of 11 g. In the case of `COc1ccc2c(c1)c(CC(=O)O)c(C)n2C(=O)c1ccc(Cl)cc1` [INDOMETHACIN], the Activity is reported as -15 g.

System: Rattus norvegicus
Assay: Gastrointestinal toxicity in Rattus norvegicus (rat) assessed as perforating ulcers at 84 umol/kg, sc qd for 4 days
Type: organism-based
Details: in vivo, 96 h
Work on `COc1ccc2c(c1)c(CC(=O)N1CCCC1C(=O)Oc1ccc(C)cc1OC)c(C)n2C(=O)c1ccc(Cl)cc1` (centres undefined) yielded an Activity of 0%. Work on `COc1ccc2c(c1)c(CC(=O)O)c(C)n2C(=O)c1ccc(Cl)cc1` [INDOMETHACIN] yielded an Activity of 80%.

System: not listed separately
Assay: Toxicity in Rattus norvegicus (rat) assessed as mortality at 84 umol/kg, sc qd for 4 days
Type: organism-based
Details: in vivo
With `COc1ccc2c(c1)c(CC(=O)N1CCCC1C(=O)Oc1ccc(C)cc1OC)c(C)n2C(=O)c1ccc(Cl)cc1` (centres undefined) the mortality at 96 h was 0%. With `COc1ccc2c(c1)c(CC(=O)O)c(C)n2C(=O)c1ccc(Cl)cc1` [INDOMETHACIN] the mortality at 96 h was 50%.

System: Rattus norvegicus
Assay: Anti-inflammatory activity in Rattus norvegicus (rat) ischemia-reperfusion model assessed as reduction of malondialdehyde formation in brain at 0.4 mmol/kg, ip qd for 4 days and dose repeated 2 hr before initiation of ischemia measured 90 min after reperfusion
Type: functional
Details: not given
`CCOC(=O)C(CS)NC(=O)C1CCCN1C(=O)Cc1c(C)n(C(=O)c2ccc(Cl)cc2)c2ccc(OC)cc12` (centres undefined) showed an Activity of 3 nmol/mg.

System: Liver microsome
Assay: Antioxidant activity in Rattus norvegicus (rat) liver microsomal fraction assessed as inhibition of lipid peroxidation after 45 min by spectrophotometric analysis
Type: functional, microsomes
Details: 0.75 h
With `CCOC(=O)C(CS)NC(=O)C1CCCN1C(=O)Cc1c(C)n(C(=O)c2ccc(Cl)cc2)c2ccc(OC)cc12` (centres undefined) the IC50 was 390 µM.

System: Liver microsome
Assay: Antioxidant activity in Rattus norvegicus (rat) liver microsomal fraction assessed as inhibition of lipid peroxidation at 1 mM after 45 min by spectrophotometric analysis
Type: functional, microsomes
Details: not given
`CC(C)Cc1ccc(C(C)C(=O)N2CCCC2C(=O)OCCO[N+](=O)[O-])cc1` (centres undefined) showed an inhibition of 14%.

Target: T1, Prostaglandin G/H synthase 1 (Ovis aries) (UniProt P05979)
T1 sequence (whole entry): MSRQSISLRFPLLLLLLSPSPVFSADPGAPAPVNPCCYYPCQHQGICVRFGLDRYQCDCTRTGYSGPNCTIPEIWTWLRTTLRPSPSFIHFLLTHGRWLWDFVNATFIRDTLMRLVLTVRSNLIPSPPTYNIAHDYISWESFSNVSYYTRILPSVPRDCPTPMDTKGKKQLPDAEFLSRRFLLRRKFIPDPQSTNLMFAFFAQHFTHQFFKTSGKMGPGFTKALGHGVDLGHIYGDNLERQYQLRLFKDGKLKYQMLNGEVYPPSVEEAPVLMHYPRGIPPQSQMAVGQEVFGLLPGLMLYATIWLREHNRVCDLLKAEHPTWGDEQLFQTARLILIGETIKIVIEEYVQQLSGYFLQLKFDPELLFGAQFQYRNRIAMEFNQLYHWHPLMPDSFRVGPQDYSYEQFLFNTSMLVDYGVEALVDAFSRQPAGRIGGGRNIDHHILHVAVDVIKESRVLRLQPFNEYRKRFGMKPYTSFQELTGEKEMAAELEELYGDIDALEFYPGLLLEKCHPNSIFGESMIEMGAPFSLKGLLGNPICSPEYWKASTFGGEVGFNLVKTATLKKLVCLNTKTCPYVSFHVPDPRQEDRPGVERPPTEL
Assay: Inhibition of Ovis aries (sheep) COX1 assessed as formation of PGF2a at 200 uM by enzyme immunoassay
Details: not given
Work on `COc1ccc2c(c1)c(CC(=O)N1CCCC1C(=O)Oc1ccc(C)cc1OC)c(C)n2C(=O)c1ccc(Cl)cc1` (centres undefined) yielded an inhibition of 16%.

Target: T2, Seed linoleate 13S-lipoxygenase-1 (Glycine max, UniProt P08170)
T2 sequence (P08170 whole entry): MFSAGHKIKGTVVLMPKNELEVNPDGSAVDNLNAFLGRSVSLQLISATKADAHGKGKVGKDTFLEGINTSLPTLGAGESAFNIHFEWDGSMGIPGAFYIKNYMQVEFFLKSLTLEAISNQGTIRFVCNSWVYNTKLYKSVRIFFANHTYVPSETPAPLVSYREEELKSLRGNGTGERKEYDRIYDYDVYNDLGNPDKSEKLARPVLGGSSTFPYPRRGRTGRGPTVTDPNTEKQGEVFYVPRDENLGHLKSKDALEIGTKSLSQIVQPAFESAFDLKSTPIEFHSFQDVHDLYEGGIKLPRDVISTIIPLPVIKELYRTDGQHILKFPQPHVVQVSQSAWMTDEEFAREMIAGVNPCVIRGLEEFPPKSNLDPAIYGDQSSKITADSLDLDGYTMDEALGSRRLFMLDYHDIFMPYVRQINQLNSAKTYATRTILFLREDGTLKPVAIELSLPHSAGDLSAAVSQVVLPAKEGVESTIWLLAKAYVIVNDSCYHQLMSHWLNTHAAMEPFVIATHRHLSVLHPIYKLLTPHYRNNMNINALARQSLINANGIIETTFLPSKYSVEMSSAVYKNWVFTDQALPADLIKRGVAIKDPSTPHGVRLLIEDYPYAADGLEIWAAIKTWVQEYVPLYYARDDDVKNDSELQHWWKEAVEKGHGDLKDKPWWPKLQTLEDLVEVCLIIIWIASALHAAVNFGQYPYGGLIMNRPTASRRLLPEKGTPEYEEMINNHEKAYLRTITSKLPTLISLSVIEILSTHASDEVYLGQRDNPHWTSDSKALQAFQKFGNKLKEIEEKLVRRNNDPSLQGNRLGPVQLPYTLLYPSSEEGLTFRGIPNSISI
Assay: Inhibition of Glycine max (soybean) lipoxygenase assessed as formation of 13-hydroperoxylinoleic acid using sodium linoleate as substrate after 7 min
Details: not given
With `COc1cc(C)ccc1OC(=O)C(C)c1ccc(CC(C)C)cc1` (centres undefined) the IC50 was 65 µM. Compound `CC(C)Cc1ccc(C(C)C(=O)OCCCc2cccnc2)cc1` (centres undefined) has an IC50 of 45 µM. `CC(C)Cc1ccc(C(C)C(=O)N2CCCC2C(=O)OCCO)cc1` (centres undefined) showed an IC50 of 320 µM. With `CC(C)Cc1ccc(C(C)C(=O)N2CCCC2C(=O)OCCCc2ccccc2)cc1` (centres undefined) the IC50 was 60 µM. Work on `CC(C)Cc1ccc(C(C)C(=O)N2CCCC2C(=O)OCCO[N+](=O)[O-])cc1` (centres undefined) yielded an IC50 of 240 µM.
